From US11286278B2, “DPEP-1 binding agents and methods of use” (Arch Biopartners, Inc., priority 2018, dated 2022)
Ends that are not written are not given here.

Columns and labels:
[1] = target: T1, human membrane dipeptidase (DPEP-1) (Homo sapiens, UniProt P16444); assay: Membrane dipeptidase enzyme activity assay (Gly-D-Phe, fluorometric); type: biochemical; settings: lysates of transfected Cos1 cells, substrate Gly-D-Phe
T1 construct: expressed in transfected cells; host or cells: Cos-1
T1 sequence (P16444 17-385): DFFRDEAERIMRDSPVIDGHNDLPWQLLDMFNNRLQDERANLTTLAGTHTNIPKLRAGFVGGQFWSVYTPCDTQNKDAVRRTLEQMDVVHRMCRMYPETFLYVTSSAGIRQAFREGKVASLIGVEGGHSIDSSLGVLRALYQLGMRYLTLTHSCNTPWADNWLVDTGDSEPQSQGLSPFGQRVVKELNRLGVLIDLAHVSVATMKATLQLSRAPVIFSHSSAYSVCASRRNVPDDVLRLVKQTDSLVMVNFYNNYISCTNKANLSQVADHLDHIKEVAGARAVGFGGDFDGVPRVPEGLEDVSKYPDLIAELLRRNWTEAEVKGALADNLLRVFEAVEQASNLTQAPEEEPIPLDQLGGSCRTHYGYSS
Protocol: 24 hours after transfection, DPEP-1 expressing cells weer reseeded on 24 well collagen coated (neutralized) plates and allowed to grow for 24 hours at 37° C. […] Cells were blocked with FBS/NBSA/Tween in PBS for 30 minutes on ice. […] After incubation, cells were washed with PBS and stained with DAPI for 4 minutes on ice. Cells were again washed with PBS, fixed using 4% paraformaldehyde and immunofluoresence microscopy was performed to assess binding. Proteins from human DPEP-1 transfected cells were isolated after 48 hours using octyl-glucoside/RIPA in the absence of protease inhibitors. […] Proteins from transfected cells were isolated after 48 hours using octyl-glucoside/RIPA lysis buffer and western blot analysis was performed to assess DPEP-1 expression using DPEP-1 antibody (Sigma).
The fluorescence signal generated from the conversion of D-Phe to […] in the presence of D-aminoacidoxidase and peroxidase was measured using a fluorescence plate reader.
Proteins from DPEP-1 transfected cells were isolated after 48 hours using octyl-glucoside/RIPA lysis buffer and western blot analysis was performed to assess DPEP-1 expression using a DPEP-1 specific antibody (Proteintech) (FIG. 24B).

serum cytokines = assay: Plasma cytokine levels after LPS, Luminex Cytokine Arrays; type: in vivo, mouse; settings: SCID mice, LPS 0.5 mg/kg i.p., 4 hours
Protocol: 6-8 weeks old SCID mice were given an intraperitoneal injection of LPS (0.5 mg/kg) 5 minutes prior to intravenous injection of LSALT peptide or a control peptide. 4 hours following injection of LPS, blood was collected by cardiac puncture and changes in plasma cytokine levels were assessed using Luminex Cytokine Arrays. Bar graphs show the levels of different inflammatory mediators released in the plasma in the presence or absence of LSALT peptide and control peptide.
6-8 weeks old SCID mice were given an intraperitoneal injection of LPS (0.5 mg/kg) 5 minutes prior to intravenous injection of LSALT peptide or a control peptide. 4 hours following injection of LPS, blood was collected by cardiac puncture and changes in plasma cytokine levels were assessed using Luminex Cytokine Arrays. Bar graphs show the level of the anti-inflammatory cytokine IL-10 released in the plasma in LSALT peptide or control peptide in two independent experiments.

[2] = system: activated (TNFα and IL1β treated) HLMVEC; assay: Cancer cell binding to activated human lung microvascular endothelial cells; type: cell-based; settings: 50 μM
Description: LSALT decreases binding of metastatic cancer cells to human lung microvascular endothelial cells (HLMVEC) activated by TNFα and IL1β.

## H-LSALTPSPSWLKYKAL [LSALT]
[1]
  inhibition of human DPEP1 enzymatic activity: do not inhibit membrane dipeptidase enzyme activity
Serum cytokines
  levels of serum cytokines in response to LPS: attenuates the levels of a number of different serum cytokines
  plasma IL-10 in response to LPS: increases the production of the anti-inflammatory mediator IL-10
[2]
  binding of murine melanoma cells (B16-F10) to activated HLMVEC: decreased binding
  binding of murine sarcoma cells (Tao-1) to activated HLMVEC: decreased binding
